For one compound, Ki results are on record in PMC1097768 (Nucleic Acids Research, 2005).

The test deals with mNdK (nucleoside diphosphate kinase) (Mycobacterium tuberculosis, UniProt P9WJH7). Kind of test: FRET molecular beacon nuclease assay with FP1T, Lineweaver-Burk analysis. It counts as biochemical.

SMILES strings stand for the structures.

Chain of mNdK (nucleoside diphosphate kinase) (P9WJH7 whole entry): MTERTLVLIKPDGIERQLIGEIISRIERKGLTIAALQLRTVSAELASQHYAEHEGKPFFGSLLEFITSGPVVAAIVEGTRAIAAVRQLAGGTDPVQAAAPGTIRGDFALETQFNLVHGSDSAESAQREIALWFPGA

For the compound `Nc1nc2c(ncn2[C@@H]2O[C@H](COP(=O)(O)OP(=O)(O)O)[C@@H](O)[C@H]2O)c(=O)[nH]1` [GDP], the Ki (as a rule, a measure of affinity in units of concentration, obtained from inhibition or displacement) is approximately 1900 µM.
